According to patent publication US12655106B2 (Eikonizo Therapeutics, Inc., priority 2021, dated 2026):

Tests used:
Full length Human HDAC6 = target: T1, Full length Human HDAC6 (Homo sapiens, UniProt Q9UBN7); test: Caliper endpoint assay for HDAC enzymatic activity (HDAC6); type: biochemical; settings: for IC50: in vitro enzymatic, Caliper endpoint assay, 30 min pre-incubation, 1 μM substrate peptide; for Selectivity (6 v 8): ratio of HDAC8 IC50/HDAC6 IC50
T1 construct: Full length Human HDAC6; FLAG (C); host or cells: baculovirus expression system
T1 sequence (Q9UBN7 1-1215): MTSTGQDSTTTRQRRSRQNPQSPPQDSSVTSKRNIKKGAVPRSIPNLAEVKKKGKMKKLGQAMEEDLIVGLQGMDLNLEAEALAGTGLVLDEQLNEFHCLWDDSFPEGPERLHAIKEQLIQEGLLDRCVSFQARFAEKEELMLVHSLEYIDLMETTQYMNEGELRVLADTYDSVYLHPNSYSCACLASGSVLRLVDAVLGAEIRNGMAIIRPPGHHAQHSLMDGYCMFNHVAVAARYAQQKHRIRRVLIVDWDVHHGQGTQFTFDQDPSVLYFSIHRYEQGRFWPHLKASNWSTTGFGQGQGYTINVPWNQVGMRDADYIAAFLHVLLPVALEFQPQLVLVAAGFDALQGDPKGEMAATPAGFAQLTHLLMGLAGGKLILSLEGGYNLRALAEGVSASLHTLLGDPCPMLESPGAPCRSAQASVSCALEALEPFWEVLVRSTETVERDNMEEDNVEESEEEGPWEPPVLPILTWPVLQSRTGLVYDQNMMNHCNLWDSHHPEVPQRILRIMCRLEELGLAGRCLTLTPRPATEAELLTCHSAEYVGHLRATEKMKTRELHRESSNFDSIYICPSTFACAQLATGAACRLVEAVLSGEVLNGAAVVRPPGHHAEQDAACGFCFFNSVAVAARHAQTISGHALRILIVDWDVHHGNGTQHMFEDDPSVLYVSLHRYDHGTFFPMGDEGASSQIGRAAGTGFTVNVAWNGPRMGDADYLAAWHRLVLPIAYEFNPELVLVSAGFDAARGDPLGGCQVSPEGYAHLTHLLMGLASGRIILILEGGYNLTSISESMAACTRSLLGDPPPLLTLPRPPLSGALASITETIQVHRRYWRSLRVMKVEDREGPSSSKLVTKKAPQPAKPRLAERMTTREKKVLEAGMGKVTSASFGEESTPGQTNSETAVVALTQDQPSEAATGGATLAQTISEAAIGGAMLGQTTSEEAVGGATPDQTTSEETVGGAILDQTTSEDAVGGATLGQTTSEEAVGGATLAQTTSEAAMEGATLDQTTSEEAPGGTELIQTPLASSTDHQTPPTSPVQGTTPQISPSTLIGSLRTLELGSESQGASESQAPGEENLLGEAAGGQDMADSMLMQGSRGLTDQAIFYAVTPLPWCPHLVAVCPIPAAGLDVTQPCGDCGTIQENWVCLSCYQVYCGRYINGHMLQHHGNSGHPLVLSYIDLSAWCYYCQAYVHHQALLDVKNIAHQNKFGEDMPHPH

Full length Human HDAC8 = target: T2, Full length Human HDAC8 (Homo sapiens, UniProt Q9BY41); test: Caliper endpoint assay for HDAC enzymatic activity (HDAC8); type: biochemical; settings: in vitro enzymatic, 30 min pre-incubation, 1 μM substrate peptide
T2 construct: Full length Human HDAC8; HIS (N); host or cells: baculovirus expression system
T2 sequence (Q9BY41 1-377): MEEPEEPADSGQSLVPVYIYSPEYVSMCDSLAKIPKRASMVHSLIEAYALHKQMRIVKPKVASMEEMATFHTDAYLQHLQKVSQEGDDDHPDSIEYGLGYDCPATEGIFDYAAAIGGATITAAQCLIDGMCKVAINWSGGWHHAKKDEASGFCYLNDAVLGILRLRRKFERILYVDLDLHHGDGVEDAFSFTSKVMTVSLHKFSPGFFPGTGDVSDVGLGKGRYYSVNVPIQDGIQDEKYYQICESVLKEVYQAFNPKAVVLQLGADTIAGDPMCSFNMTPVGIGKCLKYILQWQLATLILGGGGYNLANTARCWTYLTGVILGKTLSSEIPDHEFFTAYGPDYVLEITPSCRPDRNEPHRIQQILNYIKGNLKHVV

Row | IC50 (Full length Human HDAC6) | IC50 (Full length Human HDAC8) | Selectivity (6 v 8) (Full length Human HDAC6) | Compound
1 | 1 to 100 nM | 1000 to 10000 nM | – | O=C(NO)c1ccc(CN2C[C@H]3CC[C@@H]2CO3)c(F)c1 [Compound 173]
2 | 1 to 100 nM | 1000 to 10000 nM | III (III: >10-100) | O=C(NO)c1cc(F)c2c(c1)CCN(C1CCC13CN(C1CC1)C3)C2 (stereo not drawn) [Compound 303, 2-(2-cyclopropyl-2-azaspiro[3.3]heptan-7-yl)-8-fluoro-3,4-dihydro-1H-isoquinoline-6-carbohydroxamic acid]
3 | 1 to 100 nM | 1000 to 10000 nM | IV (IV: >100-1000) | O=C(NO)c1cc(F)c2c(c1)CCN(C1CCC3(CC1)CN(Cc1ccccc1)C3)C2 [Compound 430, 2-(2-benzyl-2-azaspiro[3.5]nonan-7-yl)-8-fluoro-3,4-dihydro-1H-isoquinoline-6-carbohydroxamic acid]
4 | 1 to 100 nM | 10000 to 100000 nM | IV (IV: >100-1000) | CC(=O)N1CCC2(CC1)CC(CN1CCc3cc(C(=O)NO)cc(F)c3C1)C2 [Compound 471, 2-[(7-acetyl-7-azaspiro[3.5]nonan-2-yl)methyl]-8-fluoro-3,4-dihydro-1H-isoquinoline-6-carbohydroxamic acid]
5 | 100 to 1000 nM | 10000 to 100000 nM | III (III: >10-100) | O=C(NO)c1cc(F)c2c(c1)CCN(C1CCC3(C1)CN(C1CC1)C3)C2 (stereo not drawn) [Compound 390, 2-(2-cyclopropyl-2-azaspiro[3.4]octan-6-yl)-8-fluoro-3,4-dihydro-1H-isoquinoline-6-carbohydroxamic acid]
6 | 1 to 100 nM | 10000 to 100000 nM | IV (IV: >100-1000) | O=C(NO)c1cc(F)c2c(c1)CCN(C1CC3(CCOC3)C1)C2 (single isomer, unassigned) [Compound 189, 8-fluoro-N-hydroxy-2-(6-oxaspiro[3.4]octan-2-yl)-1,2,3,4-tetrahydroisoquinoline-6-carboxamide]
7 | 100 to 1000 nM | 10000 to 100000 nM | IV (IV: >100-1000) | CC[C@H]1Cc2c(F)cc(C(=O)NO)cc2CN1C1CCC1 (single isomer, unassigned) [Compound 597]
8 | 10000 to 100000 nM | > 100000 nM | – | O=C(NO)c1cc(F)c2c(c1)C[C@@H]1COCCN1C2 (single isomer, unassigned) [Compound 129]
9 | 1 to 100 nM | 10000 to 100000 nM | V (V: >1000) | CN1CC2(CCC(N3CCc4cc(C(=O)NO)cc(F)c4C3)CC2)C1 [Compound 427, 8-fluoro-2-(2-methyl-2-azaspiro[3.5]nonan-7-yl)-3,4-dihydro-1H-isoquinoline-6-carbohydroxamic acid]
10 | 1 to 100 nM | 1000 to 10000 nM | IV (IV: >100-1000) | CN1CC2(CC(N3CCc4cc(C(=O)NO)cc(F)c4C3)C2)C1 [Compound 290, 8-fluoro-N-hydroxy-2-(2-methyl-2-azaspiro[3.3]heptan-6-yl)-1,2,3,4-tetrahydroisoquinoline-6-carboxamide]
11 | > 100000 nM | 10000 to 100000 nM | V (V: >1000) | O=C(NO)c1ccc2c(c1F)CCN(C1CC3(CCCCC3)C1)C2 [Compound 506, 5-fluoro-N-hydroxy-2-(spiro[3.5]nonan-2-yl)-1,2,3,4-tetrahydroisoquinoline-6-carboxamide]
12 | 1 to 100 nM | 1000 to 10000 nM | III (III: >10-100) | CC[C@H]1Cc2c(F)cc(C(=O)NO)cc2CN1CC12CC(NC(C)=O)(C1)C2 (single isomer, unassigned) [Compound 525]
13 | 100 to 1000 nM | 10000 to 100000 nM | IV (IV: >100-1000) | CC[C@@H]1Cc2c(F)cc(C(=O)NO)cc2CN1C1CC2(CCN(C3CC3)CC2)C1 (single isomer, unassigned) [Compound 598]
14 | 1 to 100 nM | 10000 to 100000 nM | IV (IV: >100-1000) | O=C(NO)c1cc(F)c2c(c1)CCN(C1CC3(CCN(C4CC4)CC3)C1)C2 [Compound 607, 2-(7-cyclopropyl-7-azaspiro[3.5]nonan-2-yl)-8-fluoro-3,4-dihydro-1H-isoquinoline-6-carbohydroxamic acid]
15 | 1 to 100 nM | > 100000 nM | V (V: >1000) | CN1CCCCC12CC(N1CCc3cc(C(=O)NO)cc(F)c3C1)C2 (stereo not drawn) [Compound 352, 8-fluoro-2-(5-methyl-5-azaspiro[3.5]nonan-2-yl)-3,4-dihydro-1H-isoquinoline-6-carbohydroxamic acid]
16 | > 100000 nM | > 100000 nM | V (V: >1000) | CC[C@@H]1Cc2c(F)cc(C(=O)NO)cc2CN1C[C@@]12C[C@@H](CO1)N(C)C2 (single isomer, unassigned) [Compound 555]
17 | 1 to 100 nM | 10000 to 100000 nM | IV (IV: >100-1000) | [2H]c1c(C(=O)NO)ccc2c1CCN(C1CC3(CCCCC3)C1)C2 [Compound 505, N-hydroxy-2-(spiro[3.5]nonan-2-yl)-1,2,3,4-tetrahydroisoquinoline-5-d-6-carboxamide]
18 | 100 to 1000 nM | 10000 to 100000 nM | IV (IV: >100-1000) | CC[C@H]1Cc2c(F)cc(C(=O)NO)cc2CN1C1CC2(CCN(C)CC2)C1 (single isomer, unassigned) [Compound 595]
19 | 1 to 100 nM | 1000 to 10000 nM | – | CC[C@@H]1CCCN1Cc1ccc(C(=O)NO)cc1F [Compound 48]
20 | 1 to 100 nM | 10000 to 100000 nM | V (V: >1000) | O=C(NO)c1cc(F)c2c(c1)CCN(CC1CC3(CCNCC3)C1)C2 [Compound 468, 2-(7-azaspiro[3.5]nonan-2-ylmethyl)-8-fluoro-3,4-dihydro-1H-isoquinoline-6-carbohydroxamic acid]
21 | 1 to 100 nM | 10000 to 100000 nM | IV (IV: >100-1000) | CC(=O)N1CC2(CCC(N3CCc4cc(C(=O)NO)cc(F)c4C3)C2)C1 (stereo not drawn) [Compound 391, 2-(2-acetyl-2-azaspiro[3.4]octan-6-yl)-8-fluoro-N-hydroxy-1,2,3,4-tetrahydroisoquinoline-6-carboxamide]
22 | 1 to 100 nM | 1000 to 10000 nM | IV (IV: >100-1000) | CN1CC[C@@H](N2CCc3cc(C(=O)NO)cc(F)c3C2)CC12CCC2 (single isomer, unassigned) [Compound 438]
23 | 1 to 100 nM | 1000 to 10000 nM | IV (IV: >100-1000) | O=C(NO)c1cc(F)c2c(c1)CCN(C1CCC13COC3)C2 (stereo not drawn) [Compound 300, 8-fluoro-2-(2-oxaspiro[3.3]heptan-7-yl)-3,4-dihydro-1H-isoquinoline-6-carbohydroxamic acid]
24 | 1 to 100 nM | 10000 to 100000 nM | IV (IV: >100-1000) | O=C(NO)c1cc(F)c2c(c1)CCN([C@H]1CCN(C3CC3)C3(CCC3)C1)C2 (single isomer, unassigned) [Compound 439]

Row | Compound | IC50 (Full length Human HDAC6) | IC50 (Full length Human HDAC8) | Selectivity (6 v 8) (Full length Human HDAC6)
25 | O=C(NO)c1ccc2c(c1)CCN1CCCC[C@@H]21 [Compound 89] | 1000 to 10000 nM | 1000 to 10000 nM | II (II: >1-10)
26 | O=C(NO)c1cc(F)c2c(c1)C[C@@H]1CCCN1C2 (single isomer, unassigned) [Compound 119] | 100 to 1000 nM | 10000 to 100000 nM | III (III: >10-100)
27 | O=C(NO)c1cc(F)c2c(c1)C[C@@H]1CCCCN1C2 [Compound 93] | 1 to 100 nM | 1000 to 10000 nM | IV (IV: >100-1000)
28 | CC1(C)C[C@@H]2Cc3cc(C(=O)NO)cc(F)c3CN2C1 [Compound 126] | 100 to 1000 nM | 1000 to 10000 nM | III (III: >10-100)
